Measured values as given in US7282507B2, “Indole derivatives as selective androgen receptor modulators (SARMS)” (Janssen Pharmaceutica N.V., priority 2004, dated 2007).
Where “and” joins values, the source holds several entries; their conditions need not be identical. Identical values can stand only once. Like-named read-outs stand apart in the source and are kept apart here.

Experiments:
[1] = target: T1, androgen receptor LBD (Panvera) (Rattus norvegicus, UniProt P15207); test: Androgen Receptor Filtration Binding Assay (PANVERA)
T1 construct: 5 pmol androgen receptor LBD (Panvera); purchased Panvera
T1 sequence (P15207 651-882 limits assumed): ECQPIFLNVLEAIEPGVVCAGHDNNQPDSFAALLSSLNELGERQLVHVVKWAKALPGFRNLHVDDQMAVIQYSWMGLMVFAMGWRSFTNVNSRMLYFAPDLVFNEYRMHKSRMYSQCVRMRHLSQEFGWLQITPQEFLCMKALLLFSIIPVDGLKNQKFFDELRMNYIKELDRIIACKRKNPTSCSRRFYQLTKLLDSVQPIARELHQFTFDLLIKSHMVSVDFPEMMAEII
Procedure: The assay was run on a 96 well plate with each well filled with a total reaction volume 150 μL, of a solution containing 5 pmol androgen receptor LBD (Panvera) or 30 μL of freshly prepared rat cytosol, 0.5 nM [^3H] […] (TED buffer contains 10 mM Tris.HCl pH 7.4, 1 mM sodium molybdate, 1.5 mM EDTA, 1 mM DTT and 10% (v/v) glycerol.)
On day one, the solution containing receptor, tracer and TED buffer was distributed into a 96 well plate. Diluted test compound or control vehicle was then added to individual wells and the plate incubated at 4° C. overnight.
On day two, to each well was then added 20 μL human γ-globulin (ICN 823102), prepared at 25 mg/ml in TE pH 8.0, and 55 μL 40% polyethylene glycol 8000 (J T Baker U222-08), prepared in TE pH 8.0. The plate was incubated at 4° C. for 60 minutes. During incubation, the harvester was rinsed with 10% PEG 8000, prepared in TE pH 8.0, and a GF/C Unifilter-96 was pre-wet with 10% PEG. The binding reaction was filtered, the retentate was washed three times with 10% PEG and dried under vacuum for a couple of minutes, then dried at 50° C. for 5 min and the plate was bottom sealed. Next, 25 μL of Microscint-20 (Packard) was added to the filter wells and the plate was top sealed. The plate wells were then counted on a TopCount (Packard).
Counts per well were measured and IC50s determined by linear regression.

[2] = target: T2, androgen receptor (rat ventral prostate cytosol) (Rattus norvegicus, UniProt P15207); test: Androgen Receptor Binding Using Rat Ventral Prostate Cytosol; conditions: for inhibition at 1 µM: read-out: % Inhibition, Androgen Receptor Binding (Rat Cytosol)
T2 construct: from tissue; host or cells: ventral prostate cytosol of castrated male Sprague Dawley or Wistar rats
T2 sequence (P15207 1-902): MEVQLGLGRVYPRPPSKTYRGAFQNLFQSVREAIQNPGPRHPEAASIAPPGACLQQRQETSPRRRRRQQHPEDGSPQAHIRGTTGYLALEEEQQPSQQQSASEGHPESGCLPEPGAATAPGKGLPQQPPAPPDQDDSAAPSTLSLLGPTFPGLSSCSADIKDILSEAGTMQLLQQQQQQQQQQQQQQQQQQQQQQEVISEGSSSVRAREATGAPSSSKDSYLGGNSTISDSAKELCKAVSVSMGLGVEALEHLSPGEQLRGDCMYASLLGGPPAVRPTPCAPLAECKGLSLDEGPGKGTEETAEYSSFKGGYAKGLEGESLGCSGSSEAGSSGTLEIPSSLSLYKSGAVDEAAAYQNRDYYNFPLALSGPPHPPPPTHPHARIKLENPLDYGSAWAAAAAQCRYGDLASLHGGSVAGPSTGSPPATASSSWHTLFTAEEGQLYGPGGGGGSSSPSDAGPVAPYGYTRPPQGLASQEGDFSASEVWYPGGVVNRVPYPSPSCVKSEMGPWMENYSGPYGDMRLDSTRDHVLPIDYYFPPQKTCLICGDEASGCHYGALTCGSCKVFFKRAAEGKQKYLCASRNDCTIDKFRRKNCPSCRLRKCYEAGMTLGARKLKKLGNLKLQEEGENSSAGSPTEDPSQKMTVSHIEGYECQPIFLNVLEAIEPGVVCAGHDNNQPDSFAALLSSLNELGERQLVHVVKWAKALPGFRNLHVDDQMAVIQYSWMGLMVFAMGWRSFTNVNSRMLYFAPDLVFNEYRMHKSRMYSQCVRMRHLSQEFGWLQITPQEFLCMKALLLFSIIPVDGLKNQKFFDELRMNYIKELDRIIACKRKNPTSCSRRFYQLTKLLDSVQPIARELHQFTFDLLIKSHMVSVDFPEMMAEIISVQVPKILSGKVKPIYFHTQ
Procedure, shortened: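 Cytosol from castrated rat ventral prostate was incubated overnight at 4°C with 0.5 nM [3H] tracer and compound in TED buffer (10 mM Tris-HCl pH 7.4, molybdate, EDTA, DTT, glycerol).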

[3] = [3H] R1881 tracer 0.5 nM, read-out: IC50 (nM), Androgen Receptor Binding (Panvera)
[4] = read-out: IC50 (nM), Androgen Receptor Binding (Rat Cytosol)
[5] = IC50 (nM), Androgen Receptor Binding (Panvera)
[6] = read-out: IC50 (nM), Androgen Receptor Binding (Panvera)

SMILES	IC50 [1, 3]	inhibition at 1 µM ([2]; Concentration 1000 nM) [%]	also measured
CC(O)(COC(=O)c1ccc([N+](=O)[O-])cc1)c1cc2cc([N+](=O)[O-])c(C(F)(F)F)cc2[nH]1 (stereo not shown) [Compound 63]	1550 nM	47.5	–
CC(O)(Sc1ccc(Cl)cc1)c1cc2cc(C#N)c(C(F)(F)F)cc2[nH]1 (racemic) [Compound 261]	1460 nM	–	% Inhibition, Androgen Receptor Binding (Rat Cytosol) ([2]; Concentration 1000 nM): 14.05%
COC(=O)c1ccc2c(c1)cc(C(C)(O)CSc1ccc(F)cc1)n2S(C)(=O)=O (stereo not shown) [Compound 98]	8500 nM	-31	–
CC(O)(Sc1ccc(Cl)c(Cl)c1)c1cc2cc([N+](=O)[O-])c(C(F)(F)F)cc2[nH]1 (racemic) [Compound 254]	1020 nM and 920 nM	–	% Inhibition, Androgen Receptor Binding (Rat Cytosol) ([2]; Concentration 1000 nM): 41%; IC50 [2, 4]: 670 nM
CC(O)(COC(=O)c1ccc(F)cc1)c1cc2cc(C#N)c(C(F)(F)F)cc2[nH]1 (stereo not shown) [Compound 77]	1110 nM	-9.25	–
CC(O)(CSc1ccc(Cl)cc1)c1cc2cc(C#N)c(C(F)(F)F)cc2[nH]1 (stereo not shown) [Compound 96]	–	–	IC50 [1, 5]: 820 nM; IC50 [1, 6]: 1710 nM; % Inhibition, Androgen Receptor Binding (Rat Cytosol) ([2]; 1 µM): 59%; inhibition at 1 µM [2]: 74%
CC(O)(CCl)c1cc2nc(C(F)(F)F)ccc2n1S(C)(=O)=O (stereo not shown) [Compound 4]	7600 nM	10.8	–
CC(O)(C[S+]([O-])c1ccc(Cl)c(Cl)c1)c1cc2cc(Cl)c(C(F)(F)F)cc2[nH]1 (stereo not shown) [Compound 116]	1750 nM	28.4	–
CC(O)(CSc1ccc(Cl)cc1)c1cc2cc([N+](=O)[O-])c(C(F)(F)F)cc2o1 (racemic) [Compound 8]	2650 nM	-2	–
CC(O)(COC(=O)c1ccccc1C(F)(F)F)c1cc2cc(N)c(C(F)(F)F)cc2[nH]1 (stereo not shown) [Compound 59]	–	–	IC50 [1, 6]: 4100 nM; IC50 [2]: 220 nM; inhibition at 1 µM [2]: 67.5%
CC(O)(COC(=O)c1ccccc1)c1cc2cc(C#N)c(C(F)(F)F)cc2[nH]1 (stereo not shown) [Compound 75]	–	–	IC50 [1, 5]: 9100 nM; inhibition at 1 µM [2]: 13.2%
O=C(c1ccc(Cl)cc1)N1CCC(O)(c2cc3cc(Cl)c(C(F)(F)F)cc3[nH]2)CC1 [Compound 25]	8800 nM	–	% Inhibition, Androgen Receptor Binding (Rat Cytosol) ([2]; Concentration 1000 nM): −83.5%
CC(O)(COC(=O)c1ccc(Cl)cc1)c1cc2cc(C#N)c(C(F)(F)F)cc2[nH]1 (stereo not shown) [Compound 76]	1240 nM	-30.5	–
CC(O)(CSc1ccc(F)cc1)c1cc2ccccc2n1S(C)(=O)=O (stereo not shown) [Compound 107]	9400 nM	1.5	–
CC(O)(CSc1ccc(Cl)c(Cl)c1)c1cc2cc(Cl)c(C(F)(F)F)cc2n1S(C)(=O)=O (stereo not shown) [Compound 86]	1250 nM	72.5	IC50 [2, 4]: 240 nM
CC(O)(CSc1ccc(F)cc1)c1cc2cc(C#N)c(C(F)(F)F)cc2[nH]1 (stereo not shown) [Compound 109]	2600 nM	49	–
CC(O)(CSc1ccc(F)cc1)c1cc2cc(Cl)c(C(F)(F)F)cc2[nH]1 (stereo not shown) [Compound 83]	160 nM and 545 nM	69	IC50 [2, 4]: 120 nM

SMILES	IC50 [1, 3]	inhibition at 1 µM ([2]; Concentration 1000 nM) [%]	also measured
COC(=O)c1ccc2[nH]c(C(C)(O)CSC3CCCCC3)cc2c1 (stereo not shown) [Compound 94]	15000 nM	21.8	–
CC(O)(COC(=O)c1ccccn1)c1cc2cc([N+](=O)[O-])c(C(F)(F)F)cc2[nH]1 (stereo not shown) [Compound 68]	19000 nM	36	–
CC(O)(CSC1CCCCC1)c1cc2cc(C#N)c(C(F)(F)F)cc2[nH]1 (stereo not shown) [Compound 92]	37000 nM	14.7	–
CC(O)(COC(=O)c1ccc(Cl)cc1)c1cc2cc(Cl)ccc2[nH]1 (stereo not shown) [Compound 53]	1970 nM	9.75	–
CC(O)(COC(=O)c1c(Cl)cccc1Cl)c1cc2cc([N+](=O)[O-])c(C(F)(F)F)cc2[nH]1 (stereo not shown) [Compound 52]	150 nM	94.5	IC50 [2, 4]: 79 nM
CC(O)(CSc1ccc(F)cc1)c1cc2nc(C(F)(F)F)ccc2[nH]1 (racemic) [Compound 5]	39000 nM	5.5	–
COC(=O)c1ccc2c(c1)cc(C(C)(O)CSc1ccccc1)n2S(C)(=O)=O (stereo not shown) [Compound 81]	15000 nM	5.2	–
CS(=O)(=O)n1c(C2(O)CCNCC2)cc2cc(Cl)c(C(F)(F)F)cc21 [Compound 23]	54000 nM	–	% Inhibition, Androgen Receptor Binding (Rat Cytosol) ([2]; Concentration 1000 nM): −1.5%; IC50 [2, 4]: 6000 nM
CC(O)(C[S+]([O-])c1ccc(F)cc1)c1cc2cc(Cl)c(C(F)(F)F)cc2[nH]1 (stereo not shown) [Compound 114]	4900 nM	–	% Inhibition, Androgen Receptor Binding (Rat Cytosol) ([2]; Concentration 1000 nM, 1 µM): 61%
CC(O)(CSc1ccccc1)c1cc2cc(Cl)c(C(F)(F)F)cc2[nH]1 (stereo not shown) [Compound 106]	225 nM	63	IC50 [2, 4]: 300 nM
CC(O)(CSc1ccccc1)c1cc2cc(C#N)c(C(F)(F)F)cc2[nH]1 (stereo not shown) [Compound 95]	3000 nM	56.5	–
CC(O)(CSc1ccccc1)c1cc2ccccc2n1S(C)(=O)=O (stereo not shown) [Compound 90]	> 9000 nM	-2.5	–
CC(O)(CSc1ccc(F)cc1)c1cc2ccccc2[nH]1 (stereo not shown) [Compound 108]	7000 nM	17.5	–
CC(O)(CSc1ccccc1Cl)c1cc2cc(Cl)c(C(F)(F)F)cc2[nH]1 (stereo not shown) [Compound 84]	180 nM	86	IC50 [2, 4]: 240 nM
CC(O)(C[S+]([O-])c1ccccc1)c1cc2cc(Cl)c(C(F)(F)F)cc2[nH]1 (stereo not shown) [Compound 112]	4100 nM	39.5	–
CC(O)(CSc1ccc(Cl)c(Cl)c1)c1cc2cc([N+](=O)[O-])c(C(F)(F)F)cc2n1S(C)(=O)=O (stereo not shown) [Compound 91]	1280 nM	36	–
